“Also recorded” adds a separate entry of the source. Read-outs that look alike come from different tables or passages of the source.
Columns and labels:
DU145 cells = assay: Wound healing (scratch) assay; type: cell-based; settings: 1 μM for 18 h prior to wounding; untreated control closed by 36 h
Protocol: DU145 cells were seeded in 6-well cell culture plates with Dulbecco's modified Eagle's medium/high glucose containing 10% FBS. After the cells reached 100% confluence, the monolayer was scratched using a […] pipette tip and washed once with PBS, to remove non-adherent cells. […] After drug incubation and wound induction, the medium was replaced with fresh drug-free medium and cells were observed under the microscope at the denoted time points.

[1] = tested on: MDA-MB-435 cancer cell line; assay: SRB antiproliferative assay, MDA-MB-435; type: cell-based, human
[2] = biological target: Stat3 binding to hSIE DNA probe (Homo sapiens, UniProt P40763); assay: Electrophoretic mobility shift assay (EMSA); settings: DU145 nuclear extracts
Protocol: Binding reactions contained 0.9 μg poly(dI-dC). Competition assays were performed by adding 100× excess cold SIE oligonucleotide (lane C) and non-specific competitor (lane M: FIRE; 5′-[sequence]-3′). The DNA-protein complexes were subjected to electrophoresis and resolved on a 5% non-denaturing polyacrylamide gel (30% acrylamide/Bis solution, Bio-Rad) in 0.5% TBE buffer containing 2.5% glycerol (pH 7.8) at 4° C. for 2 h. Once dried, the radioactive signal of the gel was visualized by exposure to Fuji medical X-ray film.
Binding reactions contained 0.9 μg poly(dI-dC). Competition assays were performed by adding 100× excess cold SIE oligonucleotide (lane C) and non-specific competitor (lane M; FIRE; 5′-[sequence]-3′). The DNA-protein complexes were subjected to electrophoresis and resolved on a 5% non-denaturing polyacrylamide gel (30% acrylamide/Bis solution, Bio-Rad) in 0.5% TBE buffer containing 2.5% glycerol (pH 7.8) at 4° C. for 2 h. Once dried, the radioactive signal of the gel was visualized by exposure to Fuji medical X-ray film.

[3] = tested on: HCT116-oxaliplatin resistant spheroids; assay: CellTiter-Glo 3D cell viability assay, HCT116-oxaliplatin resistant spheroids; type: cell-based; settings: 96 h exposure, 3D CellTiter-Glo
Protocol: For cell spheroid formation, HCT116-oxaliplatin resistant cells, A2780-cisplatin resistant cells, and HT1080 cells were seeded in Corning® Spheroid opaque-walled 96 well Microplates (ultra-low attachment; Nuclon™ Sphera™, Thermofisher) at densities of 2000 cells/well in 100 μl of cell solution and allowed to grow for 4 days, before any manipulation.
Spheroid cells were treated by adding 100 μl of 2-fold the desired compound concentration and incubated at 37° C. for 96 h. At the end of drug incubation, both the plates and the CellTitre-Glo® reagent (previously thawn overnight in the fridge) were equilibrated at room temperature for at least 30 min. Subsequently, 100 μl of cell solution were carefully removed from each well, without disrupting the spheroid and equal volume of CellTitre-Glo® reagent was added. Cell lysis was performed by vigorously shaking the plate for 5 min. To stabilize the luminescent signal, the plate was incubated in the dark at RT for another 30 min before luminescence was recorded on a plate reader. The cell viability of treated samples was normalised to the untreated controls.
The cytotoxicity studies in spheroids were conducted using the CellTiter-Glo® 3D Cell viability assay (Promega) following the instructions of the manufacturer.

L1210 (lymphoma) cells = assay: MTT cytotoxicity assay, L1210 cells
[4] = tested on: Stat3, Stat1α, Stat5a and Stat5b; assay: Stat selectivity: immunoblotting and TransAM STAT Family ELISA; type: cell-based; settings: DU145 cells, 18 h
Protocol: The Active Motif TransAMX Stat Family ELISA kit was utilized to study the specificity of IE-8 for Stat3, 20 μg of whole cell extract was used and Stat activity was assessed according to the manufacturer's protocol. Briefly, 30 μl of Complete Binding Buffer (provided and supplemented with 2 μl of 1M DTT and 10 μl of Herring sperm DNA per ml of Binding Buffer AM6) was added to each well used. 20 μl of sample (nuclear extract diluted in Complete Lysis Buffer) per well, were used, while Complete Lysis Buffer (provided and supplemented with 1 μl of 1 M DTT and 10 μl of Protease Inhibitor Cocktail per ml of Lysis Buffer AM1) only, was used for blanks. The plate was sealed with the provided adhesive cover and incubated for 1 hour at room temperature, with mild agitation, on a rocking platform. At the end of incubation, the wells were washed 3 times with 200 μl 1× Wash Buffer (provided). 100 μl of one of the diluted Stat antibodies (1:1000 dilution in 1× Antibody binding buffer for the Stat3, Stat1, Stat5A and Stat5B antibodies) were added to all the used wells. […] Absorbance was read on a spectrophotometer immediately thereafter, at 450 nm, with a reference wavelength of 655 nm.
TransAM® STAT Family ELIS Assay. […] 20 μg of whole cell extract was used and STAT activity was assessed according to the manufacturers protocol.

Stat3 binding to hSIE DNA probe, sequence (P40763 whole entry): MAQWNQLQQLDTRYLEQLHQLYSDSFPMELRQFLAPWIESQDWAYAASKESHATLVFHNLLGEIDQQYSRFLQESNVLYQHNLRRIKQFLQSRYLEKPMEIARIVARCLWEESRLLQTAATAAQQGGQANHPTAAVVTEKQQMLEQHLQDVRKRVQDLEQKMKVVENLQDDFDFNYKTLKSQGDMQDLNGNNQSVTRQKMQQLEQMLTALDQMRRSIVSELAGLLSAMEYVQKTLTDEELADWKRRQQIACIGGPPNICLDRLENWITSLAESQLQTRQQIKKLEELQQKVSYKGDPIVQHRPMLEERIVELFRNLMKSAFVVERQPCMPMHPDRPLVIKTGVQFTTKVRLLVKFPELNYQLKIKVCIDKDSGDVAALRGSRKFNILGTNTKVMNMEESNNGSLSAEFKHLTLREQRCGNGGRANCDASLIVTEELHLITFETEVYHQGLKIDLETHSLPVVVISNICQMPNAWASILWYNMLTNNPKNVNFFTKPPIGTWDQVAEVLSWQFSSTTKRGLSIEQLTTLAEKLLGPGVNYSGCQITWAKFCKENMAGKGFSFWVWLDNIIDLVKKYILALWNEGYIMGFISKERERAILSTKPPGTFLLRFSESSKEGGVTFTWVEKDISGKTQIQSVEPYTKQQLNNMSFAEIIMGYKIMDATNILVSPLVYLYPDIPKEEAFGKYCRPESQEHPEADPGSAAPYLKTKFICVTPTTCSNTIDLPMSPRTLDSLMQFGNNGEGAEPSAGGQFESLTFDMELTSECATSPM

Compound | time for which full wound closure was prevented (DU145 cells) | IC50 ([1]; 48 h exposure) | concentration blocking Stat3-DNA binding activity [2] | IC50 [3] | IC50 (L1210 (lymphoma) cells; read-out: IC50 (μM) L1210, 72 h exposure, MTT, mean of three independent experiments) | selectivity for Stat3 over Stat1, Stat5a and Stat5b [4] | IC50 ([1]; Homo sapiens, MDA-MB-435, 48 h exposure) | IC50 (L1210 (lymphoma) cells; Mus musculus, L1210, 72 h, read-out: IC50 (μM) L1210, 72 h exposure, MTT, mean of three independent experiments)
3,5-Di(3,4,5-trimethoxybenzylidene)-1-phenylpiperidin-4-one [IE-8] | up to 60 h | 0.15 µM | ≥ 0.8 µM | 8500 nM | ~0.3 µM | selective for STAT3 over STAT1 | – | –
COc1cc(/C=C2\CN(c3ccccc3)C/C(=C\c3cc(OC)c(OC)c(OC)c3)C2=O)cc(OC)c1OC [IE-8, 3,5-Di(3,4,5-trimethoxybenzylidene)-1-phenylpiperidin-4-one] | up to 60 h | – | ≥ 0.8 µM | 8500 nM | – | selectively inhibits pStat3^Tyr705 without inhibiting pStat1^Tyr701 or pStat5^Tyr694; also recorded: selectively inhibit the Stat3-DNA binding activity over that of Stat1α, Stat5a and Stat5b; also recorded: selective for Stat3 over Stat1, Stat5a, and Stat5b | 0.15 µM | 0.36 µM

Reference: patent publication US11964943B2, “3,5-diarylidenyl-n-substituted-piperid-4-one-derived inhibitors of Stat3 pathway activity and uses thereof” (priority 2017, dated 2024)
